{
  "source": "patent US12551463B2",
  "about": "“Dosing of a Bruton's tyrosine kinase inhibitor” (Loxo Oncology, Inc., priority 2019, dated 2026)",
  "key": {"[1]": {"test": "Human clinical trials of BTK-I: adverse events in the overall safety population of 323 patients", "format": "in vivo", "experimental": "(Mato A., et al., “Toxicities and Outcomes of 616 Ibrutinib-Treated Patients in the United States: A Real-World Analysis”, Haematologica, 2018, 103(5), 874-879.) Between Mar. 21, 2019 and Sep. 27, 2020, across 7 dose levels ranging from 25 mg once daily (QD) to 300 mg QD in 323 patients, the only treatment-emergent adverse events regardless of attribution or grade seen in ≥10% of patients (n=323) were fatigue (n=65, 20%), diarrhea (n=55, 17%), and contusion (n=42, 13%). In 121 efficacy-evaluable cBTKi-treated chronic lymphocytic leukemia (CLL) patients (median prior lines=4), overall response rate (ORR) was 62% (95% CI: 53-71), rising to 84% in patients followed for ≥10 months.\nAtrial arrythmias and hemorrhage are two important AEs associated with covalent BTK inhibitor discontinuation. […] Only 1 patient experienced a grade 3 hemorrhage, a subarachnoid bleed sustained during a bicycle accident. In total, 18 patients had discontinued a prior BTK inhibitor for cardiovascular toxicity (in 15) or hemorrhage (3). None experienced recurrence of these events on BTK-I."}, "DLBCL": {"test_system": "DLBCL", "test": "Phase 1/2 clinical study, DLBCL patients", "format": "in vivo, human", "text": "The study is an open-label, multi-center study of oral BTK-I to evaluate safety and efficacy as monotherapy and as part of combination therapy in patients with CLL/SLL and NHL who have failed or are intolerant to standard of care. This study includes monotherapy as well as combination treatment parts. The monotherapy part includes Phase 1 dose escalation and dose expansion as well as Phase 2. The combination therapy part is a Phase 1b (safety assessment and expansion) of BTK-I in combination with venetoclax, with or without anti-CD20 therapy. Phase 1 dose escalation will proceed prior to start of Phase 1b or Phase 2. Once a recommended Phase 2 dose (RP2D) is identified in Phase 1, enrollment can commence to the Phase 1b combination therapies and Phase 2 monotherapy cohorts. […]\nThe primary objective of the Phase 2 is to assess the primary anti-tumor activity of BTK-I based on overall response rate (ORR) and as assessed by the Independent Review Committee. […]\nDosing during Phase 2 will be at the RP2D of 200 mg QD. […] The dose (and schedule) chosen for Phase 2 may be changed by the SRC based on emerging data (e.g., PK, safety, and/or efficacy) as long as the new dose is not greater than the highest dose that has a DLT <33% and is determined to be safe by the SRC in Phase 1. […]"}, "BTK wild type": {"target": "T1, BTK wild type (Homo sapiens, UniProt Q06187)", "T1 construct": "expressed in transfected cells", "test": "BTK Y223 autophosphorylation in HEK293 cells expressing BTK wild type", "format": "cell-based", "settings": "for IC90: HEK293, wild type BTK", "experimental": "HEK293 cell lines stably expressing BTK wild type and the mutant form C481S are generated using standard transfection methods. For assessment of cellular inhibition potency, cells are grown in DMEM+10% FBS+1 μg/mL puromycin (complete growth media) at 37° C. in a C02 incubator. Cells are harvested according to standard protocols using TrypLE (Gibco #12604-013), counted, resuspended in complete growth media, and added to 6 well assay plates at […] in 2 mL. Plates are incubated overnight at 37° C. with 5% C02. The following day, cells are treated for 2 hours with BTK-I, prepared as a 6-point dose curve, 1:3 dilution series with final concentrations starting at a maximum concentration of 300 nM and a constant DMSO concentration of 0.5% (v/v). Control wells contain 0.5% (v/v) DMSO alone (no inhibition control). All samples are tested in triplicate. Following compound incubation, growth medium is discarded, cells are washed with DPBS (1×) (Gibco #14190-144) and lysed in 1 mL of CelLytic™ M (Sigma #C2978) containing 1× Halt phosphatase and protease inhibitor cocktails (Pierce #78442). Plates are placed on ice for 1 hour with gentle agitation and stored at −80° C. overnight. The next day, cell lysates are placed in 1.5 mL tubes and cleared by centrifugation at 16,000×g for 10 minutes at 4° C. Supernatants are quantified by BCA (Pierce #23225) and stored at −80° C. Samples are analyzed by Simple Western (Protein Simple) with anti-phospho-BTK (Y223) (Cell signaling technologies (cst) #5082) and anti-BTK (cst #8547). β-actin is the used as a loading control and detected by regular Western blot with an anti-β-actin antibody (cst #4970). Simple Western results are analyzed with Compass software (Protein Simple). BTK Y223 phosphorylation signal is normalized to total BTK, and IC50 values are calculated using a 4-parameter fit in GraphPad Prism 7.04 software."}, "[2]": {"settings": "25 mg QD to 300 mg QD, n=323, regardless of attribution or grade"}},
  "note": "Where two headings read alike, the source gives them in different places.",
  "data": [
    {"smiles": "COc1ccc(F)cc1C(=O)NCc1ccc(-c2nn([C@@H](C)C(F)(F)F)c(N)c2C(N)=O)cc1", "note": "[BTK-I, (S)-5-amino-3-(4-((5-fluoro-2-methoxybenzamido)methyl)phenyl)-1-(1,1,1-trifluoropropane-2-yl)-1H-pyrazole-4-carboxamide]", "values": [
      {"measurement": "treatment-emergent adverse event contusion, patients", "setting": "[1]; [2]", "result": 13, "unit": "%"},
      {"measurement": "treatment-emergent adverse event diarrhea, patients", "setting": "[1]; [2]", "result": 17, "unit": "%"},
      {"measurement": "treatment-emergent adverse event fatigue, patients", "setting": "[1]; [2]", "result": 20, "unit": "%"},
      {"measurement": "recurrence of cardiovascular toxicity or hemorrhage on BTK-I", "setting": "[1]; 18 patients who had discontinued a prior BTK inhibitor for cardiovascular toxicity (15) or hemorrhage (3)", "result": "None"},
      {"measurement": "permanent discontinuations for drug-related adverse events, patients", "setting": "[1]; n=323 (in 5)", "result": 1.5, "unit": "%"},
      {"measurement": "dose reductions for drug-related adverse events, patients", "setting": "[1]; n=323 (in 7)", "result": 2.2, "unit": "%"},
      {"measurement": "dose interruptions for drug-related adverse events, patients", "setting": "[1]; n=323 (in 26)", "result": 8.0, "unit": "%"},
      {"measurement": "atrial fibrillation/flutter, patients", "setting": "[1]; overall safety population of 323 patients, 2 patients, both grade 2, considered unrelated", "result": 0.6, "unit": "%"},
      {"measurement": "grade 3 hemorrhage", "setting": "[1]; overall safety population of 323 patients, subarachnoid bleed during a bicycle accident", "result": 1, "unit": "patient"},
      {"measurement": "responses/patients", "setting": "DLBCL", "result": "6/25"},
      {"measurement": "IC90", "setting": "BTK wild type; read-out: IC90", "result": 77.4, "unit": "nM"},
      {"measurement": "IC90", "setting": "BTK wild type; read-out: IC90 translated to total drug in human plasma", "result": "~0.806", "unit": "µg/mL"},
      {"measurement": "IC50", "setting": "BTK wild type; expressed as plasma concentration, read-out: IC50, inhibition of BTK in vitro", "result": 192, "unit": "nM"}
    ]}
  ]
}
